# Data from paper PMC11643612, “Insights into the Metabolism, Disposition, and Quantitative Profile of mGlu5 NAM AE90015 with Metabolite Identification and a Novel Integration Method” (Molecules, 2024).
# Tests used:
# [1] = rat PK, in-house experiment; conditions: in vivo
# [2] = in vivo rat oral dose study: metabolism, excretion and disposition (plasma, tissues, urine, bile; UV/mass integration)
# Description: The in vivo rat studies were performed following the administration of a 30 mg/kg dose of AE90015. Plasma, urine, and tissue samples were collected from two rats in a metabolic cage, and bile samples were collected from two bile duct-cannulated rats. The urine and bile samples were collected from 0 to 24 h post-administration. The tissues and plasma samples were collected at 24 h post-administration. This study was carried out to explore all metabolites, particularly the phase II metabolites, and to identify the metabolites being excreted and understand their excretion pathways. Additionally, determining whether AE90015 itself is directly cleared through urine and bile is crucial for explaining its pharmacokinetic clearance value in rats.
# For quantification, a photodiode array detector connected to UPLC in parallel to the LTQ-Obitrap mass spectrometer, detecting at 260 nm absorption, and combined with mass response was used to quantitatively measure, sometimes with compromised accuracy, the metabolites and AE90015 in all of the samples. For well-separated metabolites in the liquid chromatogram, their UV 260 nm absorption peak integration represented their molar response. When the metabolites’ UV peaks overlap with each other, UV integration is not feasible, but the integration of extracted metabolite mass is much easier. […] It was assumed that each metabolite’s UV integration-to-mass integration ratio is equal, allowing for a good approximation within the same category of metabolites. This assumption was validated by many of the metabolites measured in this study and previous studies. When no UV integration is available, multiplying the mass integration by the […] yielded in the UV integration.
# The distribution of normalized integration values for the parent drug AE90015 and its metabolites in plasma, urine, bile, and tissues, including liver, brain, and kidney, is summarized in Table 1. […] In this experiment, all amounts of AE90015 and its metabolites in the plasma, urine, and bile samples were obtained from UV responses, which were adjusted to their total volume in the rat. For the liver, brain, and kidney tissues, these amounts were normalized to tissue weight. The sample dilution factors used in the analysis were also converted back.
# The values in Table 1 represent the relative molar amounts of each metabolite of AE90015 remaining in the plasma and tissues or excreted in urine or bile 24 h post-dose. These values were derived either directly from UV 260 nm integration or from mass response integration, multiplied by the UV/mass ratio for each metabolite category, and further adjusted to plasma, urine volume, or tissue weight. The details of the calculation methods are provided in Section 3.
# Two rats weighing 0.266 and 0.252 kg received 30 mg/kg oral doses of AE90015, formulated with hydroxypropyl-beta-cyclodextrin, for the bile collection study, which was carried out for 0–24 h, and a total of 33.6 mL of bile was pooled together from the 2 rats. The two rats used for the bile collection study underwent bile duct cannulation surgery 2 days before the AE90015 dosing and bile collection. Before the surgery, the rats were anesthetized with ketamine (43 mg/kg body weight) and xylazine (8.7 mg/kg body weight). After surgical skin preparation, two catheters (intestinal and biliary) were passed subcutaneously from the dorsal scapular region into the abdomen. Through ventral midline abdominal incision, the bile duct was isolated and ligated, and the biliary catheter was inserted into the bile duct and secured. The intestinal catheter tip was placed into the duodenum just distal to the entry point of the bile duct and secured by the placement of a purse string suture. […]
# human mGlu5 receptor = tested on: human mGlu5 receptor; set-up: method as in PMID 34469715; conditions: NAM; cited from earlier work
# mGlu1 = conditions: cited from earlier work
# mGlu2 = conditions: cited from earlier work
# mGlu3 = conditions: cited from earlier work
# mGlu4 = conditions: cited from earlier work
# mGlu7 = conditions: cited from earlier work
# 79 other targets = conditions: cited from earlier work
# [3] = rats (n = 2), 24 h after 30 mg/kg oral, % of all AE90015-related material
compound,measurement,setting,value
Cc1cncc(C(=O)NC23CC4CC(CC(NC(=O)c5ccccn5)(C4)C2)C3)n1 [AE90015],clearance,[1],38 mL/min/kg
same,"Excrete from Bile, normalized relative molar amount","[2]; bile duct-cannulated rats (n = 2), bile 0-24 h after 30 mg/kg oral, % of all AE90015-related material",0.39%
same,share of total clearance by mono-oxidation (primary clearance pathway),"[2]; rat, 30 mg/kg oral, 24 h",96%
same,direct excretion via renal and bile routes,"[2]; rat, 30 mg/kg oral, 24 h, unchanged parent",0.5%
same,"Remain in Brain, normalized relative molar amount",[2]; [3],0.66%
same,"Remain in Kidney, normalized relative molar amount",[2]; [3],0.16%
same,"Remain in Liver, normalized relative molar amount",[2]; [3],0.98%
same,"Remain in Plasma, normalized relative molar amount",[2]; [3],1.47%
same,"Excrete from Urine, normalized relative molar amount","[2]; rats (n = 2), urine 0-24 h after 30 mg/kg oral, % of all AE90015-related material",0.10%
same,affinity,human mGlu5 receptor,18.5 nM
same,efficacy or affinity for mGlu1,mGlu1,no significant efficacy or affinity
same,efficacy or affinity for mGlu2,mGlu2,no significant efficacy or affinity
same,efficacy or affinity for mGlu3,mGlu3,no significant efficacy or affinity
same,efficacy or affinity for mGlu4,mGlu4,no significant efficacy or affinity
same,efficacy or affinity for mGlu7,mGlu7,no significant efficacy or affinity
same,"selectivity for mGlu5, preference compared to the 79 other targets tested",79 other targets,over 1000 fold
